Measurements from patent US8889704B2 (Array BioPharma Inc., priority 2011, dated 2014).
Structures can show the parent of a compound that is named as a salt.

Experiments:
Type in all cases: biochemical
[1] = biological target: PIM-1 (Homo sapiens, UniProt P11309); assay: Enzyme PIM-1 Assay ([33P]ATP incorporation into PIM2tide, filter plate); conditions: averaged IC50; 35 μM ATP, 7.5 μM PIM2tide, 0.25 nM PIM-1, 60 min at 22° C.
Summary of the method: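 Radiometric assay: 0.25 nM PIM-1 phosphorylates 7.5 μM PIM2tide with 35 μM [γ-33P]ATP in 20 mM MOPS pH 7.4, 10 mM MgCl2, 1 mM DTT, 0.005% Tween-20, 60 min at 22 °C. Product captured on P81 filters, scintillation counted; 10-point 3-fold curve from 10 μM top, 2% DMSO, IC50 by 4-parameter logistic fit of POC.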

[2] = biological target: recombinant rat PIM-3 (Rattus norvegicus, UniProt O70444); assay: PIM-3 Assay (as Example A); conditions: averaged IC50; 30 μM ATP, 3.75 μM PIM2tide, 0.5 nM PIM-3
Summary of the method: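 Recombinant rat PIM-3 (0.5 nM) with 3.75 μM PIM2tide and 30 μM [γ-33P]ATP in MOPS pH 7.4 buffer, 60 min at 22 °C; labelled peptide captured on phosphocellulose filters and counted by scintillation. 10-point curve (top dose 10 μM, 2% DMSO); IC50 from 4-parameter fit of percent of control.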

[3] = biological target: T1, GST-tagged recombinant full-length human Pim-2 (Homo sapiens, UniProt Q9P1W9); assay: PIM-2 Assay (as Example A); conditions: averaged IC50; 4 μM ATP, 1.0 μM PIM2tide, 1.5 nM Pim-2
T1 construct: GST-tagged recombinant full-length human Pim-2; GST
Summary of the method: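 Radiometric filter-binding assay: GST-tagged full-length human Pim-2 (1.5 nM) phosphorylates 1.0 μM PIM2tide with 4 μM [γ-33P]ATP for 60 min at 22 °C in pH 7.4 MOPS buffer, 2% DMSO. 10-point 3-fold dilutions from 10 μM top dose; IC50 from 4-parameter fit of percent of control.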

Sequence of PIM-1 (P11309 whole entry, species assumed): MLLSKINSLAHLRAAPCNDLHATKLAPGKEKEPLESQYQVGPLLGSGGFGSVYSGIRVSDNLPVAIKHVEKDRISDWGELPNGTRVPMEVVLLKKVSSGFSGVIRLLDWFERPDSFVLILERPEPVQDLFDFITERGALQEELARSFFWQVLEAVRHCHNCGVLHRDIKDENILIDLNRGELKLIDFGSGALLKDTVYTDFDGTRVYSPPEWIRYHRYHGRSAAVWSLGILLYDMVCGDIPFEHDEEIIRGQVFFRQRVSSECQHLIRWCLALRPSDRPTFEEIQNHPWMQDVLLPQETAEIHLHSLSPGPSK
T1 sequence (Q9P1W9 whole entry): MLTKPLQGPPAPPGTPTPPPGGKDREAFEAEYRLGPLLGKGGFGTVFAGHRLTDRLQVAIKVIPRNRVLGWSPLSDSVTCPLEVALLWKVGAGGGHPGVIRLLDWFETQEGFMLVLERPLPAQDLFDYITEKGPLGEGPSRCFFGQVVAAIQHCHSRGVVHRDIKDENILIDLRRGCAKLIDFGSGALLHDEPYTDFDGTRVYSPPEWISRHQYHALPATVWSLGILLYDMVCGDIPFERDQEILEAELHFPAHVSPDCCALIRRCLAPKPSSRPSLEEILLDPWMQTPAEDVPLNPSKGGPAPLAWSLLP

Question: For `N[C@H]1CCN([C@H](c2ccc3nnc(-c4ccc5cc(F)c(OC(F)F)cc5n4)n3c2)C(F)(F)F)C1` [Example 215, (S)-1-((R)-1-(3-(7-(difluoromethoxy)-6-fluoroquinolin-2-yl)-[1,2,4]triazolo[4,3-a]pyridin-6-yl)-2,2,2-trifluoroethyl)pyrrolidin-3-amine dihydrochloride], which IC50 [1] is on record?
Answer: 0.47 nM

Question: What about the IC50 [2] of the same molecule?
Answer: 3.1 nM

Question: What about the IC50 [3] of the same molecule?
Answer: > 1000 nM

Question: How did the IC50 [1] turn out when `CC(C)Oc1cc(F)cc2ccc(-c3nnc4ccc([C@H](N5CC[C@](C)(N)C5)C(F)(F)F)cn34)nc12` [Example 216, (S)-3-methyl-1-((S)-2,2,2-trifluoro-1-(3-(6-fluoro-8-isopropoxyquinolin-2-yl)-[1,2,4]triazolo[4,3-a]pyridin-6-yl)ethyl)pyrrolidin-3-amine dihydrochloride] was run?
Answer: 0.38 nM

Question: What about the IC50 [2] of the same molecule?
Answer: 0.8 nM

Question: And the IC50 [3]?
Answer: 56 nM

Question: How did the IC50 [1] turn out when `COc1cccc2ccc(-c3nnc4ccc([C@H](N5CC[C@](C)(N)C5)C(F)(F)F)cn34)nc12` [Example 217, (S)-3-methyl-1-((S)-2,2,2-trifluoro-1-(3-(8-methoxyquinolin-2-yl)-[1,2,4]triazolo[4,3-a]pyridin-6-yl)ethyl)pyrrolidin-3-amine dihydrochloride] was run?
Answer: 0.32 nM

Question: And the IC50 [2]?
Answer: 0.4 nM

Question: What about the IC50 [3] of the same molecule?
Answer: 40 nM

Question: How did the IC50 [1] turn out when `COc1cc(F)cc2ccc(-c3nnc4ccc([C@H](N5CC[C@](C)(N)C5)C(F)(F)F)cn34)nc12` [Example 218, (S)-3-methyl-1-((S)-2,2,2-trifluoro-1-(3-(6-fluoro-8-methoxyquinolin-2-yl)-[1,2,4]triazolo[4,3-a]pyridin-6-yl)ethyl)pyrrolidin-3-amine] was run?
Answer: 0.26 nM

Question: What about the IC50 [2] of the same molecule?
Answer: 0.4 nM

Question: And the IC50 [3]?
Answer: 33 nM

Question: With `N[C@H]1CCN([C@H](c2ccc3nnc(-c4ccc5cccc(OCCO)c5n4)n3c2)C(F)(F)F)C1` [Example 219, 2-(2-(6-((R)-1-((S)-3-aminopyrrolidin-1-yl)-2,2,2-trifluoroethyl)-[1,2,4]triazolo[4,3-a]pyridin-3-yl)quinolin-8-yloxy)ethanol dihydrochloride] as the molecule, how does the IC50 [1] read?
Answer: 0.26 nM

Question: And the IC50 [2]?
Answer: 1.2 nM

Question: What about the IC50 [3] of the same molecule?
Answer: 253 nM

Question: `CCOc1cc2nc(-c3nnc4ccc([C@H](N5CC[C@](C)(N)C5)C(F)(F)F)cn34)ccc2cc1F` [Example 220, (S)-1-((S)-1-(3-(7-ethoxy-6-fluoroquinolin-2-yl)-[1,2,4]triazolo[4,3-a]pyridin-6-yl)-2,2,2-trifluoroethyl)-3-methylpyrrolidin-3-amine] was tested. Which IC50 [1] did it give?
Answer: 0.28 nM

Question: And the IC50 [2]?
Answer: 0.4 nM

Question: What about the IC50 [3] of the same molecule?
Answer: 72 nM

Question: How did the IC50 [1] turn out when `COC[C@@H](C)Oc1cc(F)cc2ccc(-c3nnc4ccc([C@H](N5CC[C@](C)(N)C5)C(F)(F)F)cn34)nc12` [Example 221, (S)-3-methyl-1-((S)-2,2,2-trifluoro-1-(3-(6-fluoro-8-((R)-1-methoxypropan-2-yloxy)quinolin-2-yl)-[1,2,4]triazolo[4,3-a]pyridin-6-yl)ethyl)pyrrolidin-3-amine dihydrochloride] was run?
Answer: 0.41 nM

Question: And the IC50 [2]?
Answer: 1 nM

Question: And the IC50 [3]?
Answer: 128 nM

Question: `Cn1cc(-c2ccc3ccc(-c4nnc5ccc([C@H](N6CC[C@](C)(N)C6)C(F)(F)F)cn45)nc3c2)cn1` [Example 222, (S)-3-methyl-1-((S)-2,2,2-trifluoro-1-(3-(7-(1-methyl-1H-pyrazol-4-yl)quinolin-2-yl)-[1,2,4]triazolo[4,3-a]pyridin-6-yl)ethyl)pyrrolidin-3-amine dihydrochloride] was tested. Which IC50 [1] did it give?
Answer: 0.22 nM

Question: What about the IC50 [2] of the same molecule?
Answer: 0.2 nM

Question: And the IC50 [3]?
Answer: 77 nM

Question: For `C[C@]1(N)CCN([C@@H](c2ccc3nnc(-c4ccc5ccc(C6CC6)cc5n4)n3c2)C(F)(F)F)C1` [Example 223, (S)-1-((S)-1-(3-(7-cyclopropylquinolin-2-yl)-[1,2,4]triazolo[4,3-a]pyridin-6-yl)-2,2,2-trifluoroethyl)-3-methylpyrrolidin-3-amine dihydrochloride], which IC50 [1] is on record?
Answer: 0.29 nM

Question: What about the IC50 [2] of the same molecule?
Answer: 0.3 nM

Question: What about the IC50 [3] of the same molecule?
Answer: 62 nM

Question: For `CC(C)(CCO)c1cccc2ccc(-c3nnc4ccc([C@@H](N5CC[C@H](N)C5)C(F)(F)F)cn34)nc12` [Example 224, 3-(2-(6-((R)-1-((S)-3-aminopyrrolidin-1-yl)-2,2,2-trifluoroethyl)-[1,2,4]triazolo[4,3-a]pyridin-3-yl)quinolin-8-yl)-3-methylbutan-1-ol dihydrochloride], which IC50 [1] is on record?
Answer: 0.36 nM

Question: And the IC50 [2]?
Answer: 0.7 nM

Question: And the IC50 [3]?
Answer: 94 nM

Question: Which results are given for `CC(C)(O)c1cccc2ccc(-c3nnc4ccc([C@@H](N5CC[C@H](N)C5)C(F)(F)F)cn34)nc12` [Example 225, 2-(2-(6-((R)-1-((S)-3-aminopyrrolidin-1-yl)-2,2,2-trifluoroethyl)-[1,2,4]triazolo[4,3-a]pyridin-3-yl)quinolin-8-yl)propan-2-ol]?
Answer: IC50 [1]: 0.27 nM; IC50 [2]: 1.1 nM; IC50 [3]: 139 nM

Question: How did the IC50 [1] turn out when `N[C@H]1CCN([C@H](c2ccc3nnc(-c4ccc5cc(F)c(OCC(F)(F)F)cc5n4)n3c2)C(F)(F)F)C1` [Example 226, (S)-1-((R)-2,2,2-trifluoro-1-(3-(6-fluoro-7-(2,2,2-trifluoroethoxy)quinolin-2-yl)-[1,2,4]triazolo[4,3-a]pyridin-6-yl)ethyl)pyrrolidin-3-amine dihydrochloride] was run?
Answer: 0.27 nM

Question: And the IC50 [2]?
Answer: 0.5 nM

Question: And the IC50 [3]?
Answer: 235 nM

Question: What does the source list for `COCCOc1cccc2ccc(-c3nnc4ccc([C@@H](N5CC[C@H](N)C5)C(F)(F)F)cn34)nc12` [Example 227, (S)-1-((R)-2,2,2-trifluoro-1-(3-(8-(2-methoxyethoxy)quinolin-2-yl)-[1,2,4]triazolo[4,3-a]pyridin-6-yl)ethyl)pyrrolidin-3-amine dihydrochloride]?
Answer: IC50 [1]: 0.48 nM; IC50 [2]: 2.5 nM; IC50 [3]: 453 nM

Question: For `N[C@H]1CCN([C@H](c2ccc3nnc(-c4ccc5cc(F)cc(OC(F)F)c5n4)n3c2)C(F)(F)F)C1` [Example 228, (S)-1-((R)-1-(3-(8-(difluoromethoxy)-6-fluoroquinolin-2-yl)-[1,2,4]triazolo[4,3-a]pyridin-6-yl)-2,2,2-trifluoroethyl)pyrrolidin-3-amine dihydrochloride], which IC50 [1] is on record?
Answer: 0.79 nM

Question: What about the IC50 [2] of the same molecule?
Answer: 3.8 nM

Question: And the IC50 [3]?
Answer: 916 nM

Question: How did the IC50 [1] turn out when `N[C@H]1CCN([C@H](c2ccc3nnc(-c4ccc5cc(F)cc(OCCCO)c5n4)n3c2)C(F)(F)F)C1` [Example 229, 3-(2-(6-((R)-1-((S)-3-aminopyrrolidin-1-yl)-2,2,2-trifluoroethyl)-[1,2,4]triazolo[4,3-a]pyridin-3-yl)-6-fluoroquinolin-8-yloxy)propan-1-ol dihydrochloride] was run?
Answer: 0.13 nM

Question: And the IC50 [2]?
Answer: 0.3 nM

Question: And the IC50 [3]?
Answer: 55 nM

Question: What does the source list for `C[C@H](CO)Oc1cccc2ccc(-c3nnc4ccc([C@@H](N5CC[C@H](NCC6CC6)C5)C(F)(F)F)cn34)nc12` [Example 230, dihydrochloride]?
Answer: IC50 [1]: 0.64 nM; IC50 [2]: 3.2 nM; IC50 [3]: 211 nM

Question: What does the source list for `CC(C)N[C@H]1CCN([C@H](c2ccc3nnc(-c4ccc5cccc(O[C@H](C)CO)c5n4)n3c2)C(F)(F)F)C1` [Example 231, dihydrochloride]?
Answer: IC50 [1]: 0.88 nM; IC50 [2]: 3.5 nM; IC50 [3]: 429 nM

Question: With `N[C@H]1CCN([C@H](c2ccc3nnc(-c4ccc5cc(F)cc(OCC(F)(F)F)c5n4)n3c2)C(F)(F)F)C1` [Example 232, (S)-1-((R)-2,2,2-trifluoro-1-(3-(6-fluoro-8-(2,2,2-trifluoroethoxy)quinolin-2-yl)-[1,2,4]triazolo[4,3-a]pyridin-6-yl)ethyl)pyrrolidin-3-amine dihydrochloride] as the molecule, how does the IC50 [1] read?
Answer: 0.2 nM

Question: What about the IC50 [2] of the same molecule?
Answer: 0.8 nM

Question: And the IC50 [3]?
Answer: 206 nM
